Experimental data taken from PubChem BioAssay (NCI).
Where “and” joins values, the source holds several entries; their conditions need not be identical. Equal values may be shown once.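 Assay format: 96-well plates, 48-hour exposure. The concentration for 50% growth inhibition is given as GI50. TGI denotes the concentration required for complete inhibition of growth.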

Legend:
Assay in all cases: NCI anticancer screen, dose series, 48 h
[1] = system: DU-145 prostate
[2] = system: SK-OV-3 ovarian
[3] = system: HCC-2998 colon
[4] = system: NCI-H226 lung
[5] = system: A549 NSCLC
[6] = system: HOP-92 NSCLC
[7] = system: LOX IMVI melanoma
[8] = system: HL-60(TB) leukemia
[9] = system: M14 melanoma
[10] = system: RPMI-8226 leukemia

Row | SMILES | GI50 [1] | TGI [1] | GI50 [2] | TGI [2] | GI50 [3] | TGI [3] | GI50 [4] | TGI [4] | GI50 [5] | TGI [5] | GI50 [6] | TGI [6] | GI50 [7] | TGI [7] | GI50 [8] | TGI [8] | GI50 [9] | TGI [9] | GI50 [10] | TGI [10]
1 | O=C(Nc1ccc(Oc2ccc(NC(=O)Nc3ccccc3Cl)cc2)cc1)Nc1ccccc1Cl | 4.53 µM | > 100 µM | 9.33 µM | 38.1 µM | 8.47 µM | > 51.7 µM | 15.6 µM | 49 µM | 2.69 µM | > 26.1 µM | 1.34 µM | 9.53 µM | 10.8 µM | > 100 µM | 14.8 µM | 32.4 µM | > 44.6 µM | > 100 µM | 1.19 µM | 15.7 µM
2 | CCCCCCCCCCCCNC(=O)N[C@H](C(=O)N[C@H]1/C=C/CCNC(=O)/C=C/[C@H](C)NC1=O)C(C)C | 0.108 µM | 3.78 µM | 0.339 µM | 1.99 µM | 0.0239 µM | 0.0562 µM | 0.0582 µM | 0.167 µM | 0.262 µM | 9.07 µM | 0.123 µM | 0.353 µM | 0.113 µM | 0.355 µM | 0.143 µM | 13.3 µM | 0.221 µM | 4.6 µM | 0.0309 µM | 1 µM
3 | COc1cc(N2CCN(C(C)C)CC2)ccc1Nc1nc(Nc2ccc(F)cc2C(=O)NCC(O)CO)c2cc[nH]c2n1 (centres undefined) | 3.73 µM | > 25 µM | 6.85 µM | > 25 µM | 7.21 µM | > 25 µM | 5.04 µM | 19.9 µM | 5.76 µM | > 25 µM | 0.182 µM | 2.09 µM | 1.64 µM | > 25 µM | 1.08 µM | 13.6 µM | 12 µM | > 25 µM | 15 µM | > 25 µM
4 | Cc1ccc(S(=O)(=O)OCC(=O)Nc2ccc(C(=O)O)c(O)c2)cc1 | 26.8 µM | 75.9 µM | 49.5 µM | 188 µM | 41 µM | 88.1 µM | 30.9 µM | 139 µM | 199 µM | 503 µM | 20 µM | 56.7 µM | 20.8 µM | 61 µM | 26.1 µM | 193 µM | 28.2 µM | 85 µM | 138 µM | 346 µM
5 | CC(=O)OC1CC2C(C)(C)CCC[C@]2(C)C2=C1C(O)=C(C(C)C)C(=O)C2=O (some centres undefined) | 0.867 µM | 2.28 µM | 2.59 µM | > 28.4 µM | 0.228 µM | 0.546 µM | 0.589 µM | 2.12 µM | 0.521 µM | 3.01 µM | 0.123 µM | 0.547 µM | 1.15 µM | 2.95 µM | 0.613 µM | 4.23 µM | 0.442 µM | 1.83 µM | 0.466 µM | 4.08 µM
6 | COc1ccc(C2=NN(C=O)C(c3ccc(OS(=O)(=O)c4ccc(C)cc4)c(OC)c3)C2)cc1 (centres undefined) | 74.9 µM | > 100 µM | 8.88 µM | > 100 µM | > 100 µM | > 100 µM | 8.81 µM | > 100 µM | 9.42 µM | > 100 µM | 1.88 µM | 31.1 µM | 9.41 µM | > 100 µM | 2.56 µM | > 100 µM | 3.92 µM | > 100 µM | 4.12 µM | > 100 µM
7 | Cc1cc(I)cc(CNCCN2CCOCC2)c1O | 26.3 µM | > 100 µM | > 100 µM | > 100 µM | 43.9 µM | > 100 µM | > 100 µM | > 100 µM | > 100 µM | > 100 µM | 59.8 µM | > 100 µM | > 100 µM | > 100 µM | > 100 µM | > 100 µM | 26.9 µM | > 100 µM | > 100 µM | > 100 µM
8 | COc1ccc(NC(=S)C#N)cc1 | – | > 100 µM | – | > 100 µM | – | > 100 µM | – | > 100 µM | – | > 100 µM | – | > 100 µM | – | > 100 µM | – | > 100 µM | – | > 100 µM | – | > 100 µM
9 | O=C(CN1CCN(CCN2C(=O)c3cccc4cccc(c34)C2=O)CC1)Nc1ccc2ncsc2c1 | 5.92 µM | 19.6 µM | 8.35 µM | 23.3 µM | 5.84 µM | > 100 µM | 7.58 µM | > 100 µM | 3.58 µM | 15.4 µM | 5.24 µM | > 100 µM | 4.93 µM | 20.4 µM | 10.2 µM | 27.5 µM | 8.63 µM | 22.2 µM | 9.39 µM | 38.1 µM
10 | C=C[C@H]1CN2CCc3c([nH]c4c([C@@H]5CCCN5C)c(O)ccc34)[C@@H]2C[C@@H]1C[C@H]1c2[nH]c3ccccc3c2CCN1C | – | 2.88 µM and 3.16 µM | 2.03 µM | 3.23 µM [middle of 4 runs] | 0.142 µM | 0.297 µM | 1.27 µM | 2.96 µM and 3.13 µM and 3.97 µM | – | 3.12 µM and 3.13 µM | – | 2.76 µM and 2.91 µM | – | 3.03 µM and 2.86 µM | – | 2.06 µM and 1.85 µM and 1.9 µM | 1.25 µM and 0.211 µM | 2.75 µM and 0.436 µM and 2.55 µM | 1.94 µM | –
